# Measurements: ChEMBL document CHEMBL1158420, “Synthesis, spectral, crystal and antimicrobial studies of biologically potent oxime ethers of nitrogen, oxygen and sulfur heterocycles” (2009)
# Key:
# Staphylococcus aureus [1] = assay: Antibacterial activity against Staphylococcus aureus by twofold dilution method; format: functional
# Aspergillus niger = assay: Antifungal activity against Aspergillus niger by twofold dilution method; format: functional
# [2] = tested on: Salmonella enterica subsp. enterica; assay: Ratio of MIC for drug to MIC for Ciprofloxacin against Salmonella typhi; format: functional, Salmonella enterica subsp. enterica serovar Typhi
# Candida = assay: Antifungal activity against Candida 51 by twofold dilution method; format: functional
# Staphylococcus aureus [3] = assay: Ratio of MIC for drug to MIC for Ciprofloxacin against Staphylococcus aureus; format: functional
# Candida albicans = assay: Antifungal activity against Candida albicans by twofold dilution method; format: functional
# Aspergillus flavus = assay: Antifungal activity against Aspergillus flavus by twofold dilution method; format: functional
# Rhizopus = assay: Antifungal activity against Rhizopus sp. by twofold dilution method; format: functional
# Pseudomonas aeruginosa = assay: Antibacterial activity against Pseudomonas aeruginosa by twofold dilution method; format: functional
# Cryptococcus neoformans = assay: Antifungal activity against Cryptococcus neoformans by twofold dilution method; format: functional
# [4] = tested on: Salmonella enterica subsp. enterica; assay: Antibacterial activity against Salmonella typhi by twofold dilution method; format: functional, Salmonella enterica subsp. enterica serovar Typhi
# Escherichia coli = assay: Antibacterial activity against Escherichia coli by twofold dilution method; format: functional
# [5] = Staphylococcus aureus, read-out: MIC
# [6] = Aspergillus niger, read-out: MIC
# [7] = Aspergillus flavus, read-out: MIC
# [8] = Pseudomonas aeruginosa, read-out: MIC
# [9] = Cryptococcus neoformans, read-out: MIC
# [10] = Salmonella enterica, read-out: MIC
# [11] = Escherichia coli, read-out: MIC
# [12] = Candida albicans, read-out: MIC
SMILES,MIC (Staphylococcus aureus [1]; [5]) [µg/mL],MIC (Aspergillus niger; [6]) [µg/mL],MIC (Aspergillus flavus; [7]) [µg/mL],"MIC (Rhizopus; Rhizopus, read-out: MIC) [µg/mL]",MIC (Pseudomonas aeruginosa; [8]) [µg/mL],MIC (Cryptococcus neoformans; [9]) [µg/mL],"MIC [4, 10] [µg/mL]",MIC (Escherichia coli; [11]) [µg/mL],"MIC (Candida; Candida, 51, read-out: MIC) [µg/mL]",MIC (Candida albicans; [12]) [µg/mL],further results
Cc1ccc(C2OC(c3ccc(C)cc3)C(C)C(=NOCc3ccccc3)C2C)cc1 (stereo in doubt; 7d1),12.5,50,50,50,12.5,50,25,25,,,Ratio [2]: 2; MIC (Candida): 50 µg/mL; Ratio (Staphylococcus aureus [3]): 2; MIC (Candida albicans): 25 µg/mL
Cc1ccc([C@@H]2C/C(=N/OCc3ccccc3)C[C@H](c3ccc(C)cc3)S2)cc1,12.5,50,100,50,25,200,25,50,100,100,Ratio [2]: 2; Ratio (Staphylococcus aureus [3]): 2
Cc1ccc(C2CC(=NOCc3ccccc3)CC(c3ccc(C)cc3)N2)cc1 (stereo not drawn),200,200,100,100,50,200,100,200,100,200,
CC1C(=NOCc2ccccc2)C(C)C(c2ccc(Cl)cc2)OC1c1ccc(Cl)cc1 (stereo in doubt; 7c2),,,,,,,,,,,MIC (Staphylococcus aureus [1]): 50 µg/mL; MIC (Aspergillus niger): 50 µg/mL; MIC (Candida): 25 µg/mL; MIC (Candida albicans): 12.5 µg/mL; MIC (Aspergillus flavus): 25 µg/mL; MIC (Rhizopus): 25 µg/mL; MIC (Pseudomonas aeruginosa): 50 µg/mL; MIC (Cryptococcus neoformans): 12.5 µg/mL; MIC [4]: 100 µg/mL; MIC (Escherichia coli): 50 µg/mL
c1ccc(CO/N=C2\C[C@@H](c3ccccc3)S[C@@H](c3ccccc3)C2)cc1 (relative stereo),> 200,100,> 200,200,200,> 200,100,200,200,> 200,
COc1ccc(C2C/C(=N\OCc3ccccc3)C(C)C(c3ccc(OC)cc3)N2)cc1 (stereo not drawn),25,50,50,25,50,25,25,50,12.5,25,
c1ccc(CON=C2C[C@@H](c3ccccc3)S[C@H](c3ccccc3)C2)cc1 (relative stereo),> 200,200,100,> 200,> 200,200,200,200,> 200,200,
CC1/C(=N\OCc2ccccc2)CC(c2ccccc2)OC1c1ccccc1 (stereo not drawn),100,200,200,200,100,100,200,100,100,100,
Cc1ccc(C2C/C(=N\OCc3ccccc3)C(C)C(c3ccc(C)cc3)N2)cc1 (stereo not drawn),50,100,100,25,50,100,100,100,50,50,
CC1C(=NOCc2ccccc2)C(C)C(c2ccc(Cl)cc2)OC1c1ccc(Cl)cc1 (stereo in doubt; 7c1),50,100,50,50,25,25,50,50,50,,MIC (Candida albicans): 50 µg/mL
COc1ccc(C2CC(=NOCc3ccccc3)CC(c3ccc(OC)cc3)N2)cc1 (stereo not drawn),50,100,100,50,50,100,50,100,50,100,
CC1/C(=N/OCc2ccccc2)CC(c2ccc(Cl)cc2)NC1c1ccc(Cl)cc1 (stereo not drawn),50,50,50,100,25,50,50,50,50,25,
Cc1ccc(C2OC(c3ccc(C)cc3)C(C)C(=NOCc3ccccc3)C2C)cc1 (stereo in doubt; 7d2),,,,,,,,,,,MIC (Staphylococcus aureus [1]): 25 µg/mL; MIC (Aspergillus niger): 50 µg/mL; MIC (Candida): 6.25 µg/mL; MIC (Candida albicans): 6.25 µg/mL; MIC (Aspergillus flavus): 25 µg/mL; MIC (Rhizopus): 25 µg/mL; MIC (Pseudomonas aeruginosa): 25 µg/mL; MIC (Cryptococcus neoformans): 25 µg/mL; MIC (Escherichia coli): 50 µg/mL
CC1C(=NOCc2ccccc2)C(C)C(c2ccccc2)NC1c1ccccc1 (stereo in doubt; 5f1),200,100,200,100,,100,100,50,50,50,MIC (Pseudomonas aeruginosa): 50 µg/mL
